The source of these data is patent US20020071842A1, “Soluble CD1 compositions and uses thereof” (priority 2000, published 2002).

What all share (assay): Plate-bound mCD1d fusion protein hybridoma stimulation assay (IL-2 ELISA)
Holding throughout (type): cell-based, mouse
A general note: In an ELISA, binding on a coated surface is turned into a signal by an enzyme label.

One test has as its system 24.8.A hybridoma. Conditions: for IL-2 secretion: 24.8 A NKT hybridoma, plate-bound mCD1d-IgGFc2a fusion protein preincubated with lipid antigen. The text has this: (§1) The CD1d-restricted T cell clones 24.7, 24.8, 24.9 (NKT cell) and 14S.6, 14S.7, 14S.10, and 14S.15 (diverse TCRs) were all derived from spleen of wild type C57BL/6 mice, as described previously (Behar, S. M. et al., J. Immunol., 162:161-7 (1999)). To generate T cell hybridomas, the activated T cells were fused to the aminopterin-sensitive BW5147 αβTCR^− thymoma cell line using PEG1500, and hybrids were selected in HAT medium (Life Technologies, Gaithersburg, Md.). Resulting TT hybridomas were tested for recognition of RMA-S cells transfected with mCD1D1 compared to untransfected RMA-S cells, as described below. […] The hybridomas are distinguished from the original T cell clones by the addition of a letter to their names. The KT/7, KT/12, KT/22, and KT/23 and Vβ/9 NKT cell hybridomas were derived from NK1.1^+ T cells enriched from spleen of C57BL/6 mice by depletion of CD8+ T cells, naive T cells, and B cells by mAbs (anti-B220, CD8, and CD62L, or anti-CD8α, CD8β, and Me114) bound to magnetic microbeads, or to plastic. The purified cells were stimulated either by the anti-CD3 KT3 mAb (KT/7, KT/12, KT/22, KT/23), or by an anti-Vβ8.2 mAb (Vβ/9), and addition of IL-2 or IL-2 and IL-7. After 4-5 days of culture the cells were fused with BW5147 thymoma cells. The VII68, VIII24, XVI9, and XV104 diverse TCR hybridomas were generated from CD4^+ T cells from class 110 mice, as described previously (Cardell, S. et al., J. Exp. Med., 182:993-1004 (1995)). The DN32D3 hybridoma was derived as described (Lantz, O., and Bendelac, A., J. Exp. Med., 180:1097-106 (1994).
(§2) To test for recognition of the mCD1d fusion protein and purified or synthetic antigens, 96 well protein A coated plates (Pierce Chemical Company) were incubated with 400-600 ng/well of the fusion protein or a negative control IgG2a antibody, RPC5.4 or UPC10, in PBS, at pH 7.2. Lipid antigens were diluted into PBS and added where specified at the indicated molar ratio of antigen to fusion protein, (when not specified the ratio was 40:1). Protein A plates containing the fusion protein and antigen were incubated 24-48 hr at 37° C., then washed three times with 200 μl/well sterile PBS, pH 7.2, and two times with 200 μl/well sterile culture medium (containing RPMI supplemented with L-glutamine and penicillin/streptomycin, Life Technologies, Gaithersburg, Md., and 10% bovine calf serum, Hyclone Laboratories, Logan, Utah). For assays in which the PI was phospholipase treated, it was first diluted into 0.01M Tris, 0.15M NaCl, pH 7.5, containing 0.25 U PI-specific phospholipase C or 0.5 U phospholipase D (Sigma, St Louis, Mo.), and incubated 30 minutes at room temperature, then added to the protein A plates as described above. For assays in which the pH was varied during antigen incubation with the fusion protein, the fusion protein and α-GalCer were diluted into a 20 mM citrate/phosphate buffer of the specified pH, which contained 0.15 M NaCl, and after incubation, the samples were neutralized by addition of 1M Tris, pH 7.5. Hybridoma cells were added to fusion protein/antigen treated plates at a concentration of 1×10^5 cells/well, in a total volume of 150 μl/well. Assays were performed using 2-6 replicate wells. In some assays, an anti-mCD1d blocking antibody (19G11) was included at a final concentration of 20 μg/ml. The plates were incubated at 37° C. for 16-20 hr, and culture supernatants were withdrawn for analysis. Each experiment was performed at least three times.
IL-2 secreted in the hybridoma stimulation assays was quantitated in a double antibody sandwich ELISA, by comparison to a standard curve of purified murine IL-2 (Pharmingen, San Diego, Calif.). Hybridoma plate stimulation supernatants (used either neat or diluted) and serially diluted IL-2 standards were added to 96 well ELISA plates coated with a rat anti-mouse IL-2 capture antibody (Pharmingen).

For a further test, the system named is DN32D3 hybridoma. Conditions: DN32D3 NKT hybridoma; plate-bound mCD1d-IgGFc2a fusion protein preincubated with lipid antigen.
Source text: as §1, §2
(§3) IL-2 secreted in the hybridoma stimulation assays was quantitated in a double antibody sandwich ELISA, by comparison to a standard curve of purified murine IL-2 (Pharmingen, San Diego, Calif.). Hybridoma plate stimulation supernatants (used either neat or diluted) and serially diluted IL-2 standards were added to 96 well ELISA plates coated with a rat anti-mouse IL-2 capture antibody (Pharmingen). […]

A further test relates to Vβ/9 hybridoma. Conditions: Vβ/9 NKT hybridoma; plate-bound mCD1d-IgGFc2a fusion protein preincubated with lipid antigen.
Source text: as §1, §2, §3

A further test concerns VII68 hybridoma. Conditions: VII68 diverse TCR hybridoma; plate-bound mCD1d-IgGFc2a fusion protein preincubated with lipid antigen.
Source text: as §1, §2, §3

A further test has as its system XV19 hybridoma. Conditions: XV19 diverse TCR hybridoma; plate-bound mCD1d-IgGFc2a fusion protein preincubated with lipid antigen.
Source text: as §1, §2, §3

A further test concerns 24.7.C hybridoma. Conditions: 24 7.C NKT hybridoma; plate-bound mCD1d-IgGFc2a fusion protein preincubated with lipid antigen.
Source text: as §1, §2, §3

The subject of another test is VIII24 hybridoma. Conditions: VIII24 diverse TCR hybridoma; plate-bound mCD1d-IgGFc2a fusion protein preincubated with lipid antigen.
Source text: as §1, §2, §3

In another test the test system is XV104 hybridoma. As to conditions: XV104 diverse TCR hybridoma; plate-bound mCD1d-IgGFc2a fusion protein preincubated with lipid antigen.
Source text: as §1, §2, §3

The subject of the next test is 14S.15.A hybridoma. As to conditions: 14S.15.A diverse TCR hybridoma; plate-bound mCD1d-IgGFc2a fusion protein preincubated with lipid antigen.
Source text: as §1, §2, §3

For another test, the system named is 14S.7.N hybridoma. Conditions: 14S.7.N diverse TCR hybridoma; plate-bound mCD1d-IgGFc2a fusion protein preincubated with lipid antigen.
Source text: as §1, §2, §3

Another test relates to KT/7 hybridoma. Conditions: KT/7 NKT hybridoma; plate-bound mCD1d-IgGFc2a fusion protein preincubated with lipid antigen.
Source text: as §1, §2, §3

A further test concerns KT/12 hybridoma. Conditions: KT/12 NKT hybridoma; plate-bound mCD1d-IgGFc2a fusion protein preincubated with lipid antigen.
Source text: as §1, §2, §3

The test system of another test is KT/22 hybridoma. As to conditions: KT/22 NKT hybridoma; plate-bound mCD1d-IgGFc2a fusion protein preincubated with lipid antigen.
Source text: as §1, §2, §3

The subject of a further test is 14S.10.C hybridoma. Conditions: 14S.10 C diverse TCR hybridoma; plate-bound mCD1d-IgGFc2a fusion protein preincubated with lipid antigen.
Source text: as §1, §2, §3

The next test has as its system 24.9.E hybridoma. Conditions: for IL-2 secretion: 24.9 E NKT hybridoma, plate-bound mCD1d-IgGFc2a fusion protein preincubated with lipid antigen.
Source text: as §1, §2, §3

In another test the test system is KT/23 hybridoma. As to conditions: KT/23 NKT hybridoma; plate-bound mCD1d-IgGFc2a fusion protein preincubated with lipid antigen.
Source text: as §1, §2, §3

For a further test, the system named is 14S.6.A hybridoma. Conditions: 14S.6.A diverse TCR hybridoma; plate-bound mCD1d-IgGFc2a fusion protein preincubated with lipid antigen.
Source text: as §1, §2, §3

For phosphatidylcholine [PC], the “IL-2 response to mCD1d fusion protein pre-treated with purified or synthetic lipid” value with 24.8.A hybridoma (24.8.A hybridoma, compared to untreated or buffer treated fusion protein) is on record as “did not reproducibly significantly enhance reactivity”. In addition, the IL-2 secretion entry is “+ (“+” indicates 50-250 pg/ml)” in the test on 24.8.A hybridoma; 0 (A “0” indicates a mean of less than 50 pg/ml IL-2 was secreted) with DN32D3 hybridoma; 0 (A “0” indicates a mean of less than 50 pg/ml IL-2 was secreted) in the test with Vβ/9 hybridoma; 0 (A “0” indicates a mean of less than 50 pg/ml IL-2 was secreted) in the test with VII68 hybridoma; 0 (A “0” indicates a mean of less than 50 pg/ml IL-2 was secreted) with XV19 hybridoma; 0 (A “0” indicates a mean of less than 50 pg/ml IL-2 was secreted) with 24.7.C hybridoma. The IL-2 secretion in the test on VIII24 hybridoma, in the test with XV104 hybridoma, in the test on 14S.15.A hybridoma, in the test with 14S.7.N hybridoma, with KT/7 hybridoma and with KT/12 hybridoma was 0 (A “0” indicates a mean of less than 50 pg/ml IL-2 was secreted) in each case. For the same substance, the IL-2 secretion in the test with KT/22 hybridoma, in the test with 14S.10.C hybridoma, with 24.9.E hybridoma, in the test with KT/23 hybridoma and with 14S.6.A hybridoma was 0 (A “0” indicates a mean of less than 50 pg/ml IL-2 was secreted) throughout.

As for gangliotriosyl ceramide [aGM2], the IL-2 secretion result with 24.8.A hybridoma is on record as “+ (“+” indicates 50-250 pg/ml)”; in the test on DN32D3 hybridoma, 0 (A “0” indicates a mean of less than 50 pg/ml IL-2 was secreted); with Vβ/9 hybridoma, 0 (A “0” indicates a mean of less than 50 pg/ml IL-2 was secreted); in the test on VII68 hybridoma, 0 (A “0” indicates a mean of less than 50 pg/ml IL-2 was secreted); in the test with XV19 hybridoma, 0 (A “0” indicates a mean of less than 50 pg/ml IL-2 was secreted); with 24.7.C hybridoma, 0 (A “0” indicates a mean of less than 50 pg/ml IL-2 was secreted). For the same substance, the IL-2 secretion with VIII24 hybridoma, in the test on XV104 hybridoma, in the test on 14S.15.A hybridoma, in the test with 14S.7.N hybridoma, in the test with KT/7 hybridoma and in the test on KT/12 hybridoma was 0 (A “0” indicates a mean of less than 50 pg/ml IL-2 was secreted) in each case. In addition, the IL-2 secretion in the test with KT/22 hybridoma, in the test on 14S.10.C hybridoma, in the test on 24.9.E hybridoma, in the test with KT/23 hybridoma and in the test with 14S.6.A hybridoma was 0 (A “0” indicates a mean of less than 50 pg/ml IL-2 was secreted) each time. Besides, in the test on 24.9.E hybridoma (24.9.E hybridoma), the “IL-2 response to mCD1d fusion protein pre-treated with purified or synthetic lipid” value is reported as “not recognized”.
